We go through two substances from patent US20250179126A1, “A NOVEL PEPTIDE FROM A PHOTOSYNTHETIC BACERIUM DIRECTLY TARGETS MITOCHONDRIA TO TRIGGER APOPTOSIS IN ADVANCED PROSTATE CANCER CELLS” (priority 2022, published 2025).

One data set relates to PC3 cells. Put plainly: Cellular membrane toxicity, LDH leakage assay. It counts as cell-based, human. As to conditions: PC3, 0.2-200 μM, 37° C. Here is the method: FIG. 6A-6B: Cellular membrane toxicity assays. […] Cells treated with lysis buffer were defined as having 100% LDH release. Mean±SE (N=3).
Cellular membrane toxicity: LDH assays were performed as we previously described (Cha et al., Cancer Research 2020, 80: 1615-1623).
In general terms: LDH leaks from cells whose membrane has failed.

The subject of another data set is DU145 cells. The data set can be described thus: Annexin-V apoptosis assay by flow cytometry, DU145. It counts as cell-based, human. The following applies: DU145, 48 hr; Ptxl 1 nM, p28 50 μM, aurA/aurB 0.5-50 μM. Here is the method:
FIG. 7A-7D: Determination of apoptotic cell death. Prostate cancer cell lines (7A: LNCaP, 7B: DU145 and 7C: PC3) and normal prostate CRL11611 cells (7D) were exposed to the indicated agents for 48 hr and stained using apoptosis assay kits according to the manufacturer's instructions. The samples were analyzed by flow cytometry. Mean±SE (N=3).
After 48 hr, annexin-V apoptosis assays (Thermo Fisher Scientific) were conducted to detect apoptotic cells. At least 10,000 cells in each case were analyzed by FACS (RRC, UIC).
(In general: A flow cytometer gives signals particle by particle.)

The next data set has as its system PC3 xenograft tumors. The data set can be described thus: PC3 xenograft animal model. Type of data set: in vivo, athymic mice. The text has this:
FIG. 10A-10D: Inhibition of PC3 xenograft tumor growth. 10A, When the s.c. tumors reached ˜5 mm, athymic mice were randomized into control (PBS) and i.p. treatment groups. Mean±SE (N=5). *P<0.01. […] 10C, At the end of treatment, tumors were dissected and weighed. * P<0.01. 10D, In sections of tumors from the control group, there was a marked increase in Ki-67-positive proliferating cells (stained brown and counterstained with haematoxylin, ×40), and only a few apoptotic cells were observed, as determined by TUNEL and caspase-3 (Casp-3) staining. There was an apparent sharp reduction in Ki-67-positive proliferating cells and a higher number of TUNEL-positive apoptotic cells in the aurB-treated group compared to the control group. Similarly, Casp-3 expression in aurB-treated tumors was increased markedly compared with that in untreated controls.
Xenograft animal model: Human prostate cancer cells (PC3) were injected s.c. into the right flanks of 5- to 6-week-old male athymic mice 78. When tumors reached 5 mm in diameter, animals were randomized into control and treatment groups. […] All animals were weighed twice a week. At necropsy, tumors were dissected and weighed. Statistical comparisons were performed by one-way analysis of variance (ANOVA) (control vs treatment). Tumor samples were fixed overnight in 10% buffered formalin. Fixation was followed by dehydration, clearing and infiltration. Samples were then embedded in paraffin, and 4 μm sections were cut on a microtome. Ki67 (LabVision) staining was performed on the tissue sections using a Vector Vectastain Elite ABC Kit. The TUNEL assay was performed on the sections using a Millipore Sigma ApopTag® Peroxidase In Situ Apoptosis Detection Kit.

In data set [1] the test system is spontaneous mammary tumors. Type of data set: in vivo, MMTV-PyMT transgenic mice. From the text: FIG. 26A-26H: Azurin-producing P. aeruginosa in human tumors. The azurin-encoding gene (azu) was detected in tumors from patients with breast cancer and melanoma. It was amplified by PCR with P. aeruginosa azu-specific primers and confirmed by DNA sequencing. […] In melanoma (26A), 27.6% (8 of 29) of primary tumors and 5.9% (2 of 34) of metastatic tumors were azu positive (P<0.05). In breast cancer (26B), 22.7% (5 of 22) of primary tumors and 14.3% (2 of 14) of metastatic tumors were azu positive (P>0.05). In addition, frozen tumor samples were processed for immunogold transmission electron microscopy (TEM) by using anti-P. aeruginosa and anti-azurin antibodies. […] Magnification: ×3000. […] Survival analysis of patients with azu-positive vs. azu-negative primary melanoma (26E, P<0.01) and primary breast cancer (26F, P<0.05) tumors. 26G—Hemizvgous MMTV-PyMT transgenic mice were injected with either PBS control or 2.5 mg/kg azurin (intraperitoneally, 3× weekly) for 2 months. The mean+SE values of tumor volume were calculated. h Tumor-free survival curve was generated with the PBS control and 2.5 mg/kg azurin groups of MMTV-PyMT transgenic mice. Median tumor-free survival of the PBS control and azurin-treatment groups was 67 and 72 days, respectively. P=0.015
FIG. 29A-29C: Effect of azurin from P. aeruginosa in a transgenic animal model. 29A. Near-infrared red (NIR) dye-conjugated azurin or PBS was injected i.v. into transgenic mice that spontaneously develop mammary tumors. Twenty-four hours after azurin injection, mice were imaged with a photodynamic eye (PDE) system (left: photographic image, right: NIR fluorescence image at 800 nm). 29B. At the end of the study, the tumors were resected.
Effect of azurin on transgenic mice: Hemizygous MMTV-PyMT (mouse mammary tumor virus-polyoma middle tumor-antigen) female mice were obtained from The Jackson Laboratory. […] In order to reach this level of azurin in mouse (25 g-body weight, 2 ml total blood volume), azurin does at 2.5 mg/kg was determined. Tumor volume and body weights were determined three times weekly. […]

The mark [2] stands for this setting: tumor sections, aurB 5 mg/kg daily i.p.

For the substance “LVN GGD DVA AAV NTA AQN NAD ALF VPPP (LVNGGDDVAAAVNTAAQNNADALFVPPP) [aurB]”, the “cellular membrane toxicity (LDH release)” value with PC3 cells is “Neither aurA nor aurB induced cellular membrane toxicity at any concentrations”. Further, the apoptotic cell death entry in the data set with DU145 cells is on record as “induced significant dose-dependent apoptosis”. Further, in the data set on PC3 xenograft tumors (at end of treatment, aurB 5 mg/kg daily i.p.), the tumor weight result is “significantly decreased tumor weight”. For the same substance, in the data set on PC3 xenograft tumors (end of treatment, four weeks i.p., aurB 5 mg/kg daily, Ptxl 10 mg/kg once a week), the “tumor growth inhibition vs PBS control” value is on record as approximately 65%. For the same substance, the “antitumor effect on PC3 tumor growth” value in the data set on PC3 xenograft tumors (four weeks i.p., aurB 5 mg/kg daily, p28 10 mg/kg daily) is listed as “significantly inhibited”. In the data set on PC3 xenograft tumors (four weeks of i.p. treatment), the “behavioral change, body weight” value is “without inducing either a behavioral change or a loss in body weight”. In the data set with PC3 xenograft tumors (setting [2]), the “Ki-67-positive proliferating cells in tumors” value is recorded as “substantially reduce the number of proliferating Ki-67-positive cells”, the “TUNEL-positive apoptotic cells in tumors” value is “number of apoptotic cells was increased” and the “caspase-3-positive cancer cells in tumors” value is reported as “substantial increase in caspase-3-positive cancer cells”.

Consider “azurin: 14 kDa periplasmic copper protein of 128 amino acids from P. aeruginosa; purified recombinant”, for which, in data set [1] (2.5 mg/kg azurin i.p. 3× weekly), the tumor-free survival result is reported as “significantly extended”. In data set [1] (2.5 mg/kg azurin i.p. 3× weekly, 2 months), the “tumor growth (tumor volume)” value is “significantly inhibited”. For the same substance, the Median tumor-free survival in data set [1] (2.5 mg/kg azurin intraperitoneally, 3× weekly) came to 72 days.
